Experimental data: patent US20090062401A1, “DECALINE-DERIVED COMPOUNDS AS […] ACTIVE AGENTS” (UNIVERSITAT DORTMUND, priority 2004, published 2009)
Where two headings read alike, the source gives them in different places.

Tests used:
VHR = VHR (Homo sapiens, UniProt P51452); experiment: VHR phosphatase inhibition, general phosphatase assay using para-nitrophenylphosphate; type: biochemical; conditions: read-out: IC50 Target VHR
Source text: (§1) Assays protocols for the other enzymes mentioned herein (MtPTPA, PP1, VHR, PTP1B) are disclosed in Schweizer R A S, Atanasov, G A, Frey B M, and Odermatt A, Mol. Cell. Endocrinol. 2003, 212, 41-49 and Barratte, B., Meijer L., Galaktionov K. & Beach D, Anticancer Res. 1992, 12, 873-880. For determination of the phosphatase activity, a general phosphatase assay using para-nitrophenylphosphate was applied.

11beta-HSD1 = 11beta-HSD1 (Homo sapiens, UniProt P28845); experiment: biochemical; conditions: read-out: IC50 Target 11beta-HSD1
Sequence of 11beta-HSD1 (P28845 whole entry): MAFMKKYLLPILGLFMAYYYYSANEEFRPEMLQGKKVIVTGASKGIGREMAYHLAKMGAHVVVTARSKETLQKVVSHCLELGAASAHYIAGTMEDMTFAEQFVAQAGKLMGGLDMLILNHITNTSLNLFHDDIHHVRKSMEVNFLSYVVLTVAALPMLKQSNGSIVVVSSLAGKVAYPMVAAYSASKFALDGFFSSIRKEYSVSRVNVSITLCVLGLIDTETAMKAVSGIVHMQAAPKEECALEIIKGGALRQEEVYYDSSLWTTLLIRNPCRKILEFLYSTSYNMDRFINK
Source text: (§2) Assay protocols for Cdc25A, 11βHSD1, 11βHSD2, and AChE are described in detain in the publication of Koch M A, Wittenberg L O, Basu S, Jeyaraj D A, Gourzoulidou E, Reinecke K, Odermatt A, Waldmann H (Proc. Natl. Acad. Sci. U.S.A. 2004 Nov. 30; 101(48):16721-6) and in Koch M A et al., Proc. Natl. Acad. Sci. U.S.A. 2005 Nov. 29; 102 (48):17272-7.

PP1 = PP1 phosphatase inhibition, general phosphatase assay using para-nitrophenylphosphate; type: biochemical; conditions: read-out: IC50 Target PP1
Source text: as §1

PTP1B = biological target: T1, PTP1B (Homo sapiens, UniProt P18031); experiment: PTP1B phosphatase inhibition, general phosphatase assay using para-nitrophenylphosphate; type: biochemical; conditions: read-out: IC50 Target PTP1B
T1 sequence (P18031 1-435): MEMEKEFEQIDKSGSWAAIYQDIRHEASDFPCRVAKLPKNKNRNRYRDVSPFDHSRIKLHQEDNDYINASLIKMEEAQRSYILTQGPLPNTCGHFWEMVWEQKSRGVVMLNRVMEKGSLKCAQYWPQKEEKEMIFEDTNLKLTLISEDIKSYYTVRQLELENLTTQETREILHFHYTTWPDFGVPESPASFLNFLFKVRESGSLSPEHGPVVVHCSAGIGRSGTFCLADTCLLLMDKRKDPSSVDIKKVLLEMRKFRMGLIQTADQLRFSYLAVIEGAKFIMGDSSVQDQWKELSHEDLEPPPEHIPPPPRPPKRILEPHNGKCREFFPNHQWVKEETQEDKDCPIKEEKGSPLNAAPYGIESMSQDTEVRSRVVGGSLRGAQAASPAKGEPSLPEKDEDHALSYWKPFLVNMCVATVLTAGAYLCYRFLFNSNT
Source text: as §1

MPTPA = MPTPA (Mycobacterium tuberculosis, UniProt P9WIA1); experiment: MtPTPA phosphatase inhibition, general phosphatase assay using para-nitrophenylphosphate; type: biochemical
Sequence of MPTPA (P9WIA1 whole entry): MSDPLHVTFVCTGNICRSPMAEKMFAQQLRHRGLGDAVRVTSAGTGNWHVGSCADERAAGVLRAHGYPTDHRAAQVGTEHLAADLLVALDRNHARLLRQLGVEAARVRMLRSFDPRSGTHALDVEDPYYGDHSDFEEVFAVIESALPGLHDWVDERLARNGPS
Source text: as §1

Cdc25A = biological target: T2, Cdc25A (Homo sapiens, UniProt P30304); experiment: Cdc25A phosphatase inhibition; type: biochemical; conditions: read-out: IC50 Target Cdc25A
T2 sequence (P30304 1-524): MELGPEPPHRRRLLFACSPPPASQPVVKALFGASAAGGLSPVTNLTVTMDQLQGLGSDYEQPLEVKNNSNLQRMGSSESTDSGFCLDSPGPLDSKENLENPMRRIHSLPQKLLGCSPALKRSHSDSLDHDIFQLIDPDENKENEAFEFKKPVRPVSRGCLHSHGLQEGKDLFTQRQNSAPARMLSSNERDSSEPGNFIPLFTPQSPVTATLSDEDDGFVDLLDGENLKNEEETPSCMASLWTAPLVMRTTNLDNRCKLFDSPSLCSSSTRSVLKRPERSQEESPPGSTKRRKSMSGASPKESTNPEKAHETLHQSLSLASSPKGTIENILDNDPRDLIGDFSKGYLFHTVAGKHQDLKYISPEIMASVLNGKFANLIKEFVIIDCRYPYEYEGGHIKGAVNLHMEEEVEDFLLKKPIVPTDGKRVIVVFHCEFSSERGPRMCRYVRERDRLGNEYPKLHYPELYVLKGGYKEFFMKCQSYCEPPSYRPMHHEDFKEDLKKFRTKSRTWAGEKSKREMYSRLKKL
Source text: as §2

Sequence of VHR (P51452 whole entry, species assumed): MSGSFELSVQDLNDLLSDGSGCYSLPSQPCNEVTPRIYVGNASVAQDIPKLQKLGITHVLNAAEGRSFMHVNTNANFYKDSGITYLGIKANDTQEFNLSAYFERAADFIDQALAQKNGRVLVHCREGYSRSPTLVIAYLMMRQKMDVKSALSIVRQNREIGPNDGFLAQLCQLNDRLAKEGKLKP

| Structure (SMILES) | IC50 (VHR) | IC50 (PTP1B) | IC50 (MPTPA; read-out: IC50 Target MPTPA) | also measured |
| --- | --- | --- | --- | --- |
| CC1=C2CCC[C@H](O)[C@@]2(C)C/C(=C\c2ccc(F)c(F)c2)C1=O [Compound 1, (3E,4aS,5S)-3-(3,4-Difluorbenzyliden)-4,4a,5,6,7,8-hexahydro-5-hydroxy-1,4a-dimethyl-naphthalen-2(3H)-one] | 10 to 50 µM |  |  | IC50 (11beta-HSD1): < 10 µM |
| CC1=C2CCC[C@H](O)[C@@]2(C)C/C(=C\c2ccc([N+](=O)[O-])cc2)C1=O [Compound 17, (3E,4aS,5S)-3-(4-Nitrobenzyliden)-4,4a,5,6,7,8-hexahydro-5-hydroxy-1,4a-dimethylnaphthalen-2(3H)-one] |  | 10 to 50 µM |  | IC50 (PP1): 10 to 50 µM |
| COc1ccc(/C=C2\C[C@@]3(C)C(=C(C)C2=O)CCC[C@@H]3O)cc1 [Compound 24, (3E,4aS,5S)-3-(4-Methoxybenzyliden)-4,4a,5,6,7,8-hexahydro-5-hydroxy-1,4a-dimethylnaphthalen-2(3H)-on] | 10 to 50 µM | 10 to 50 µM |  | IC50 (MPTPA): 10 to 50 µM; IC50 (11beta-HSD1): < 10 µM; IC50 (Cdc25A): 10 to 50 µM |
| CCCCCCCCCCC#Cc1ccc(/C=C2\C[C@@]3(C)C(=C(C)C2=O)CCC[C@@H]3O)cc1 [Compound 45, (3E,4aS,5S)-3-[4-(Dodec-1-inyl)benzyliden]-4,4a,5,6,7,8-hexahydro-5-hydroxy-1,4a-dimethyl-naphthalen-2(3H)-on] | 10 to 50 µM | 10 to 50 µM |  | IC50 (PP1): < 10 µM |
| CC1=C2CCC[C@H](O)[C@@]2(C)C/C(=C\c2ccc(C#Cc3cccc(F)c3)cc2)C1=O [Compound 49, (3E,4aS,5S)-3-{4-[2-(3-Fluorphenyl)ethinyl]benzyliden}-4,4a,5,6,7,8-hexahydro-5-hydroxy-1,4a-dimethylnaphthalen-2(3H)-one] | 10 to 50 µM |  |  | IC50 (PP1): < 10 µM; IC50 (Cdc25A): < 10 µM |
| CC1=C2CCC[C@H](O)[C@@]2(C)C/C(=C\c2ccc(C#CCCO)cc2)C1=O [Compound 55, (3E,4aS,5S)-3-[4-(4-Hydroxybut-1-inyl)benzyliden]-4,4a,5,6,7,8-hexahydro-5-hydroxy-1,4a-dimethylnaphthalen-2(3H)-one] | 10 to 50 µM | 10 to 50 µM |  | IC50 (MPTPA): 10 to 50 µM; IC50 (Cdc25A): < 10 µM |
| C=C(C)C#Cc1ccc(/C=C2\C[C@@]3(C)C(=C(C)C2=O)CCC[C@@H]3O)cc1 [Compound 56, (3E,4aS,5S)-3-[4-(3-Methylbut-3-en-1-inyl)benzyliden]-4,4a,5,6,7,8-hexahydro-5-hydroxy-1,4a-dimethylnaphthalen-2(3H)-on] | 10 to 50 µM | 10 to 50 µM |  | IC50 (MPTPA): 10 to 50 µM |
| CCCCCCC#Cc1ccc(/C=C2\C[C@@]3(C)C(CCC[C@@H]3O)C(C)C2=O)cc1 (stereo partly drawn) [Compound 125, (E,4aS,5S)-3-[4-(Oct-1-inyl)-benzyliden]-octahydro-5-hydroxy-1,4a-dimethylnaphthalen-2(1H)-one] | 10 to 50 µM |  | 10 to 50 µM |  |
| CCCCCCCCCCCCCCC#Cc1ccc(/C=C2\C[C@@]3(C)C(CCC[C@@H]3O)C(C)C2=O)cc1 (stereo partly drawn) [Compound 127, (E,4aS,5S)-3-[4-(Hexadec-1-inyl)benzyliden]-octahydro-5-hydroxy-1,4a-dimethylnaphthalen-2(1H)-one] | 10 to 50 µM |  | 10 to 50 µM |  |
| CCCCCCCCCCCCCCC#Cc1ccc(/C=C2\C[C@@]3(Cc4ccccc4)C(=C(C)C2=O)CCC[C@@H]3O)cc1 [Compound 128, (3E,4aS,5S)-3-[4-(Hexadec-1-inyl)benzyliden]-4a-benzyl-4,4a,5,6,7,8-hexahydro-5-hydroxy-1-methylnaphthalen-2(3H)-one] | 10 to 50 µM |  | 10 to 50 µM |  |
| CCCC#Cc1ccc(/C=C2\C[C@@]3(Cc4ccccc4)C(=C(C)C2=O)CCC[C@@H]3O)cc1 [Compound 130, (3E,4aS,5S)-3-[4-(Pent-1-inyl)benzyliden]-4a-benzyl-4,4a,5,6,7,8-hexahydro-5-hydroxy-1-methylnaphthalen-2(3H)-one] | 10 to 50 µM |  | 10 to 50 µM |  |
| CCCCCCCCCC#Cc1ccc(/C=C2\C[C@@]3(C)C(CCC[C@@H]3O)C(C)C2=O)cc1 (stereo partly drawn) [Compound 131, (E,4aS,5S)-3-[4-(Undec-1-inyl)benzyliden]-octahydro-5-hydroxy-1,4a-dimethylnaphthalen-2(1H)-one] | 10 to 50 µM |  | 10 to 50 µM |  |
| CCCCCCCCCCCCC#Cc1ccc(/C=C2\C[C@@]3(C)C(CCC[C@@H]3O)C(C)C2=O)cc1 (stereo partly drawn) [Compound 133, (E,4aS,5S)-3-[4-(Tetradec-1-inyl)benzyliden]-octahydro-5-hydroxy-1,4a-dimethylnaphthalen-2(1H)-one] | 10 to 50 µM |  | 10 to 50 µM |  |
| CCCCCCCCCCCCC#Cc1ccc(/C=C2\C[C@@]3(Cc4ccccc4)C(=C(C)C2=O)CCC[C@@H]3O)cc1 [Compound 134, (3E,4aS,5S)-3-[4-(Tetradec-1-inyl)benzyliden]-4a-benzyl-4,4a,5,6,7,8-hexahydro-5-hydroxy-1-methylnaphthalen-2(3H)-one] | 10 to 50 µM |  | 10 to 50 µM |  |
| CC1=C(/C=C2\C[C@@]3(C)C(CCC[C@@H]3O)C(C)C2=O)NCC1 (stereo partly drawn) [Compound 158, (3E,4aS,5S)-Octahydro-3-[(4,5-dihydro-3-methyl-1H-pyrrol-2-yl)methylen]-5-hydroxy-1,4a-dimethylnaphthalen-2(1H)-one] | 10 to 50 µM | 10 to 50 µM | 10 to 50 µM |  |
| CCN(CC)C1CC[C@@]2(C)C(=C1C)CCC[C@@H]2O (stereo partly drawn) [Compound 388, (1S,8aS)-6-(Diethylamino)-1,2,3,4,6,7,8,8a-octahydro-5,8a-dimethylnaphthalen-1-ol] |  |  | 10 to 50 µM |  |
| CC1=C2CCC[C@H](O)[C@@]2(C)CC(=Cc2ccc(C#CCN(C)C)cc2)C1=O [Compound 396, (4aS,5S)-3-[4-(3-Dimethylamino-prop-1-ynyl)-benzylidene]-5-hydroxy-1,4a-dimethyl-4,4a,5,6,7,8-hexahydro-3H-naphthalen-2-one] | 10 to 50 µM | 10 to 50 µM |  | IC50 (MPTPA): 10 to 50 µM |
| CC1=C2CCC[C@H](O)[C@@]2(C)CC(=Cc2ccc(NC3CCCCC3)cc2)C1=O [Compound 399, (4aS,5S)-3-(4-Cyclohexylamino-benzylidene)-5-hydroxy-1,4a-dimethyl-4,4a,5,6,7,8-hexahydro-3H-naphthalen-2-one] |  |  |  | IC50 (11beta-HSD1): < 10 µM |
| CC1C=CCC2CCCC(=O)C12 (stereo not drawn) [Compound 407, 8-Methyl-3,4,4a,5,8,8a-hexahydro-2H-naphthalen-1-one] |  |  |  | IC50 (11beta-HSD1): < 10 µM |
| C/C=C1\CC[C@@]2(C)C(=C1C)CCC[C@@H]2O [Compound 411, (2E,4aS,5S)-6-Ethylidene-5,8a-dimethyl-1,2,3,4,6,7,8,8a-octahydro-naphthalen-1-ol] |  |  |  | IC50 (PP1): 10 to 50 µM |
| CCC(c1ccc(I)cc1)C1C[C@@]2(C)C(=C(C)C1=O)CCC[C@@H]2O (stereo partly drawn) [Compound 412, (4aS,5S)-5-Hydroxy-3-[1-(4-iodo-phenyl)-propyl]-1,4a-dimethyl-4,4a,5,6,7,8-hexahydro-3H-naphthalen-2-one] | 10 to 50 µM | 10 to 50 µM | 10 to 50 µM |  |
| CC1=C2CCC[C@H](O)[C@@]2(C)CCC1=O [Compound 413, (4aS,5S)-5-Hydroxy-1,4a-dimethyl-4,4a,5,6,7,8-hexahydro-3H-naphthalen-2-one] | 10 to 50 µM | 10 to 50 µM | 10 to 50 µM |  |
| CC1(Cc2cc(Br)cc(Br)c2)C(=O)/C(=C/c2ccc(I)cc2)CC2(C)C1CCCC21OCCO1 (stereo not drawn) [Compound 416, (7′E)-5′-(3,5-Dibromobenzyl)-7′-(4-iodo-benzylidene)-5′,8a′-dimethylhexahydro-2′H-spiro[1,3-dioxolane-2,1′-naphthalen]-6′(5′H)-one] |  | 10 to 50 µM |  | IC50 (11beta-HSD1): < 10 µM |
